Assay results from PubChem BioAssay AID248 (DTP/NCI, 2004).
Several values for one entry are separate records, joined by “and”; a condition that tells them apart may be missing. Identical values can stand only once. Toxic doses and inconclusive results are not listed. Cut-off read from the data, not from the text of the source: active = T/C of 150% or more; inactive = T/C below 125%.

Tested on: L1210 leukemia ip in BDF1 mice, survival T/C
Assay: NCI In Vivo Anticancer Drug Screen. Data for tumor model L1210 Leukemia (intraperitoneal) in B6D2F1 (BDF1) mice
Conditions: endpoint: mean survival time, higher = longer survival
Summary of the method: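 Mice bearing the transplanted tumor received compound or vehicle. Survival of the treated group was divided by that of the vehicle-treated control group to give the ratio.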

[1] = dose: 100.0 mg/kg/injection, schedule: Q01DX001 (ip), vehicle: saline
[2] = dose: 200.0 mg/kg/injection, schedule: Q01DX001 (ip), vehicle: saline
[3] = dose: 400.0 mg/kg/injection, schedule: Q01DX001 (ip), vehicle: saline
[4] = dose: 100.0 mg/kg/injection, schedule: Q04DX003 (ip), vehicle: Klucel (hydroxypropylcellulose) (HPC)
[5] = dose: 200.0 mg/kg/injection, schedule: Q04DX003 (ip), vehicle: Klucel (hydroxypropylcellulose) (HPC)
[6] = dose: 400.0 mg/kg/injection, schedule: Q04DX003 (ip), vehicle: Klucel (hydroxypropylcellulose) (HPC)
[7] = dose: 100.0 mg/kg/injection, schedule: Q04DX002 (ip), vehicle: saline with Tween-80
[8] = dose: 200.0 mg/kg/injection, schedule: Q04DX002 (ip), vehicle: saline with Tween-80
[9] = dose: 25.0 mg/kg/injection, schedule: Q01DX009 (ip), vehicle: saline with Tween-80
[10] = dose: 25.0 mg/kg/injection, schedule: Q04DX003 (ip), vehicle: saline with Tween-80
[11] = dose: 50.0 mg/kg/injection, schedule: Q01DX009 (ip), vehicle: saline with Tween-80
[12] = dose: 50.0 mg/kg/injection, schedule: Q04DX003 (ip), vehicle: saline with Tween-80
[13] = dose: 100.0 mg/kg/injection, schedule: Q04DX003 (ip), vehicle: saline with Tween-80
[14] = dose: 100.0 mg/kg/injection, schedule: Q01DX009 (ip), vehicle: saline with Tween-80
[15] = dose: 200.0 mg/kg/injection, schedule: Q01DX009 (ip), vehicle: saline with Tween-80
[16] = dose: 12.5 mg/kg/injection, schedule: Q01DX009 (ip), vehicle: saline with Tween-80
[17] = dose: 12.5 mg/kg/injection, schedule: Q04DX003 (ip), vehicle: saline with Tween-80
[18] = dose: 50.0 mg/kg/injection, schedule: Q01DX009 (ip), vehicle: saline
[19] = dose: 100.0 mg/kg/injection, schedule: Q01DX009 (ip), vehicle: saline
[20] = dose: 200.0 mg/kg/injection, schedule: Q04DX003 (ip), vehicle: saline with Tween-80
[21] = dose: 400.0 mg/kg/injection, schedule: Q04DX003 (ip), vehicle: saline with Tween-80

Measured: T/C

CCCC/C=C/CCl
inactive: [1] 88 % of control | dose: 100.0 mg/kg/injection, schedule: Q04DX003 (ip), vehicle: saline 102 % of control | [2] 91 % of control | dose: 200.0 mg/kg/injection, schedule: Q04DX003 (ip), vehicle: saline 95 % of control | [3] 90 % of control | dose: 400.0 mg/kg/injection, schedule: Q04DX003 (ip), vehicle: saline 98 % of control

CSc1cnnc2ccccc12
inactive: dose: 25.0 mg/kg/injection, schedule: Q01DX009 (ip), vehicle: Klucel (hydroxypropylcellulose) (HPC) 110 % of control | dose: 50.0 mg/kg/injection, schedule: Q01DX009 (ip), vehicle: Klucel (hydroxypropylcellulose) (HPC) 115 % of control

O=[N+]([O-])c1cc(Cl)cc2c1-c1c(Cl)cc(Cl)cc1C2Br (stereo unspecified)
inactive: dose: 100.0 mg/kg/injection, schedule: Q01DX009 (ip), vehicle: Klucel (hydroxypropylcellulose) (HPC) 101 % of control | [4] 98 % of control | dose: 200.0 mg/kg/injection, schedule: Q01DX009 (ip), vehicle: Klucel (hydroxypropylcellulose) (HPC) 104 % of control | [5] 96 % of control | dose: 400.0 mg/kg/injection, schedule: Q01DX009 (ip), vehicle: Klucel (hydroxypropylcellulose) (HPC) 103 % of control | [6] 93 % of control

COc1ccc(COc2ccc([N+](=O)[O-])cc2)cc1
inactive: dose: 50.0 mg/kg/injection, schedule: Q04DX002 (ip), vehicle: saline with Tween-80 101 % of control | [7] 104 % of control | [8] 97 % of control

O=S(=O)(O)CCl
inactive: dose: 100.0 mg/kg/injection, schedule: Q04DX002 (ip), vehicle: saline 106 % of control | dose: 200.0 mg/kg/injection, schedule: Q04DX002 (ip), vehicle: saline 120 % of control | dose: 400.0 mg/kg/injection, schedule: Q04DX002 (ip), vehicle: saline 102 % of control

c1ccc(SSc2ccccc2)cc1
inactive: [9] 89 % of control | [10] 95 % of control | [11] 86 % of control | [12] 103 % of control | [13] 97 % of control

COc1ccc(S(=O)(=O)N=[N+]=[N-])cc1
inactive: [1] 103 % of control | [2] 95 % of control

CC1CC(=O)Oc2ccc(C(C)(C)C)cc21 (stereo unspecified)
inactive: dose: 100.0 mg/kg/injection, schedule: Q01DX001 (ip), vehicle: saline with Tween-80 95 % of control | dose: 200.0 mg/kg/injection, schedule: Q01DX001 (ip), vehicle: saline with Tween-80 91 % of control | dose: 400.0 mg/kg/injection, schedule: Q01DX001 (ip), vehicle: saline with Tween-80 95 % of control

COc1ccc(C)cc1NC(=O)OCCOc1ccc(C(C)(C)C)cc1
inactive: [11] 90 % of control | [14] 90 % of control | [15] 90 % of control

O=C(CC(O)(C(F)(F)F)C(F)(F)F)c1ccc(C(=O)CC(O)(C(F)(F)F)C(F)(F)F)cc1
inactive: dose: 50.0 mg/kg/injection, schedule: Q01DX009 (ip), vehicle: other 108 % of control | dose: 100.0 mg/kg/injection, schedule: Q01DX009 (ip), vehicle: other 97 % of control

O=[N+]([O-])c1ccc(Cl)c(OCCCCOc2ccc(S(=O)(=O)F)cc2)c1
inactive: [4] 90 % of control | [5] 94 % of control

O=NN1CCC1
inactive: [1] 97 % of control | [2] 93 % of control | [3] 93 % of control

CCCCCCCCCCCCCCCCOc1ccc(F)cc1
inactive: dose: 100.0 mg/kg/injection, schedule: Q04DX002 (ip), vehicle: Klucel (hydroxypropylcellulose) (HPC) 103 % of control | dose: 200.0 mg/kg/injection, schedule: Q04DX002 (ip), vehicle: Klucel (hydroxypropylcellulose) (HPC) 118 % of control | dose: 400.0 mg/kg/injection, schedule: Q04DX002 (ip), vehicle: Klucel (hydroxypropylcellulose) (HPC) 107 % of control

O=[N+]([O-])/C=C\c1cc2c3c(c1)CCCN3CCC2
inactive: dose: 3.13 mg/kg/injection, schedule: Q01DX001 (ip), vehicle: saline with Tween-80 95 % of control | dose: 3.13 mg/kg/injection, schedule: Q04DX003 (ip), vehicle: saline with Tween-80 98 % of control | dose: 6.25 mg/kg/injection, schedule: Q01DX001 (ip), vehicle: saline with Tween-80 94 % of control | dose: 6.25 mg/kg/injection, schedule: Q04DX003 (ip), vehicle: saline with Tween-80 93 % of control | dose: 12.5 mg/kg/injection, schedule: Q01DX001 (ip), vehicle: saline with Tween-80 95 % of control and 93 % of control | [16] 100 % of control | [17] 97 % of control | dose: 25.0 mg/kg/injection, schedule: Q01DX001 (ip), vehicle: saline with Tween-80 93 % of control | [9] 102 % of control | dose: 50.0 mg/kg/injection, schedule: Q01DX001 (ip), vehicle: saline with Tween-80 97 % of control | [11] 97 % of control

CC(/C=C/C(O)=C1/C(=O)CNC1=O)=C\[C@@H](C)[C@H]1O[C@@]2(C)O[C@H](C(=O)[C@@H]3O[C@@]32C)[C@@H]1C
inactive: dose: 25.0 mg/kg/injection, schedule: Q01DX009 (ip), vehicle: saline 94 % of control | [18] 100 % of control | dose: 100.0 mg/kg/injection, schedule: Q01DX001 (ip), vehicle: acetone 89 % of control | [19] 93 % of control | dose: 100.0 mg/kg/injection, schedule: Q04DX003 (ip), vehicle: acetone 87 % of control | dose: 200.0 mg/kg/injection, schedule: Q01DX001 (ip), vehicle: acetone 89 % of control | dose: 400.0 mg/kg/injection, schedule: Q01DX001 (ip), vehicle: acetone 96 % of control

CCCCC(CCCC)(C(=O)OCCOCCCl)c1cccc2ccccc12
inactive: [7] 101 % of control | [8] 95 % of control | dose: 400.0 mg/kg/injection, schedule: Q04DX002 (ip), vehicle: saline with Tween-80 99 % of control

CCOC(=O)c1c(C)cc(O)cc1O
inactive: [14] 114 % of control | [15] 106 % of control | dose: 400.0 mg/kg/injection, schedule: Q01DX009 (ip), vehicle: saline with Tween-80 102 % of control

CN1CCC(S)(S)CC1
inactive: [16] 105 % of control | [17] 96 % of control | [9] 93 % of control | [10] 102 % of control | [11] 104 % of control | [12] 106 % of control

C#CC1(OCC2CO2)CCCCC1 (stereo unspecified)
inactive: [18] 97 % of control | [12] 100 % of control | [19] 117 % of control | [13] 101 % of control | dose: 200.0 mg/kg/injection, schedule: Q01DX009 (ip), vehicle: saline 101 % of control | [20] 103 % of control | dose: 400.0 mg/kg/injection, schedule: Q01DX009 (ip), vehicle: saline 94 % of control | [21] 100 % of control

Clc1ccc(NC(Nc2ccc(Cl)cc2)C(Cl)(Cl)Cl)cc1
inactive: dose: 50.0 mg/kg/injection, schedule: Q01DX001 (ip), vehicle: Klucel (hydroxypropylcellulose) (HPC) 93 % of control | dose: 100.0 mg/kg/injection, schedule: Q01DX001 (ip), vehicle: Klucel (hydroxypropylcellulose) (HPC) 93 % of control | dose: 200.0 mg/kg/injection, schedule: Q01DX001 (ip), vehicle: Klucel (hydroxypropylcellulose) (HPC) 90 % of control

CN1CC(N(C)C)CCC/C=C\C1=O (stereo unspecified)
inactive: dose: 75.0 mg/kg/injection, schedule: Q01DX001 (ip), vehicle: saline 102 % of control

C=CCc1ccc(OCC(N)=O)c(OC)c1
inactive: [13] 107 % of control | [20] 107 % of control | [21] 109 % of control

CCOC(=O)c1cnc(SC)nc1NN=C(C)C
inactive: [4] 92 % of control | [5] 95 % of control | [6] 93 % of control
